Measured values taken from EP4603105A1, “PHARMACEUTICAL COMPOSITION CONTAINING CYCLIC COMPOUND HAVING SELECTIVE KRAS INHIBITORY EFFECT AGAINST HRAS AND NRAS” (CHUGAI SEIYAKU KABUSHIKI KAISHA, priority 2022, dated 2024).
*1 amine or outer side, *2 acyl side, *3 side chain or, on linkers, in order; H or OH if unused. Where a SMILES comes first, the peptide text is derived from it. Bridges are numbered along the chain shown (N, C = ends). [ ]: non-standard residue; d: D form. The star is where a group is joined. hPhe(3,5-F2-4-CF3) = N[C@@H](CCc1cc(F)c(C(F)(F)F)c(F)c1)C(=O)O; hPhe(3-Cl-4-CF3) = N[C@@H](CCc1ccc(C(F)(F)F)c(Cl)c1)C(=O)O; X39 = O=C([C@H](Cc1ccc(C(F)(F)F)cc1)N(CC1CCC1)[*:1])[*:2]; NPrPhe(4-CF3) = CCCN[C@@H](Cc1ccc(C(F)(F)F)cc1)C(=O)O; NMeAbu(4,4,4-F3) = CN[C@@H](CC(F)(F)F)C(=O)O; NMeGly(cPent) = CN[C@H](C(=O)O)C1CCCC1; Pro(4,4-F2) = O=C(O)[C@@H]1CC(F)(F)CN1; Hyp = O=C(O)[C@@H]1C[C@@H](O)CN1; NMeD = CN[C@@H](CC(=O)O)C(=O)O; NMeL = CN[C@@H](CC(C)C)C(=O)O; αMeS = C[C@](N)(CO)C(=O)O; Morpholide = C1CN(*)CCO1; NMeA = CN[C@@H](C)C(=O)O; Ac5c = NC1(C(=O)O)CCCC1; Aze = O=C(O)[C@@H]1CCN1; Ac4c = NC1(C(=O)O)CCC1; Sar = CNCC(=O)O; Allyl = C=CC*

Legend:
[1] = system: human lung cancer strain NCI-H441; format: cell-based
Procedure, shortened: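 Readout: […] after the ATP-based reagent. Compound: serial dilutions in dimethyl sulfoxide.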

[2] = target: GDP-bound NRAS wild-type protein (Homo sapiens, UniProt P01111); assay: Binding to NRAS by surface plasmon resonance (SPR), KD and KD ratio to KRAS
Chain of GDP-bound NRAS wild-type protein (P01111 whole entry): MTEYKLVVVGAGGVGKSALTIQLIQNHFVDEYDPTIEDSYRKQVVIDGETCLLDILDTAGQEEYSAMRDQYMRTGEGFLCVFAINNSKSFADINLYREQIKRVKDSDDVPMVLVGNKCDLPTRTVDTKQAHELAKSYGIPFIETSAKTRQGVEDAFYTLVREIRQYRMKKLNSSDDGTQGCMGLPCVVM
Procedure, shortened: (§1)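 Affinity is measured by surface plasmon resonance at 30°C against captured, GDP-loaded RAS carrying a biotinylated Avi tag. Compounds are titrated by single-cycle kinetics, and KD comes from a 1:1 fit.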

[3] = target: HRAS wild-type protein (Homo sapiens, UniProt P01112); assay: Binding to HRAS by surface plasmon resonance (SPR), KD and KD ratio to KRAS
Chain of HRAS wild-type protein (P01112 whole entry): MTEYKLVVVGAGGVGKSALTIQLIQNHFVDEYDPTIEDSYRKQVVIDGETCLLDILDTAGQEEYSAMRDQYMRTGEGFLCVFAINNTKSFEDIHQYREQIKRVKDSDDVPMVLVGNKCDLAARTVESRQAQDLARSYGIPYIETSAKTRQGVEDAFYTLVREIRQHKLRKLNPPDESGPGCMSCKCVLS
Procedure, shortened: as §1

[4] = ratio of KD for GDP-bound NRAS wild-type protein to KD for KRAS
[5] = ratio of KD for HRAS wild-type protein to KD for KRAS
[6] = ratio of the KD value with respect to GDP-bound NRAS wild-type protein to the KD value with respect to KRAS
[7] = ratio of the KD value with respect to HRAS wild-type protein to the KD value with respect to KRAS

Compound | IC50 [1] [nM] | NRAS /KRAS [2, 4] | HRAS /KRAS [3, 5] | NRAS /KRAS [2, 6] | HRAS /KRAS [3, 7] | NRAS /KRAS ([2]; ratio of KD value for GDP-bound NRAS wild-type protein to KD value for KRAS (SPR)) | HRAS /KRAS ([3]; ratio of KD value for HRAS wild-type protein to KD value for KRAS (SPR))
C=CCOC[C@]1(C)NC(=O)[C@@H]2CCCN2C(=O)[C@H](CCc2cc(F)c(C(F)(F)F)c(F)c2)NC(=O)CN(C)C(=O)[C@H](Cc2ccc(C(F)(F)F)cc2)N(CCC)C(=O)[C@@H]2CCN2C(=O)CN(C)C(=O)[C@H]([C@@H](C)CC)NC(=O)[C@H](CC(C)C)N(C)C(=O)C[C@@H](C(=O)N2CCOCC2)N(C)C(=O)[C@H](C2CCCC2)N(C)C1=O [PP0799] ([NMeL]I[Sar][Aze][NPrPhe(4-CF3)][Sar][hPhe(3,5-F2-4-CF3)]P[αMeS](Allyl)[NMeGly(cPent)][NMeD]-Morpholide; lactam N-11) | 36.3 | C (A compound having a KD ratio of 0.1 or more and less than 3 is denoted as C) | B (a compound having 3 or more and less than 10 is denoted as B) | – | – | – | –
CCC(CC)[C@H]1C(=O)N(C)[C@H](C(=O)N(C)C)CC(=O)N(C)[C@@H](COC)C(=O)N[C@@H]([C@@H](C)CC)C(=O)N(C)CC(=O)N(C)[C@H]2C/C=C\CCN(C2=O)[C@@H](Cc2ccc(C(F)(F)F)cc2)C(=O)N(C)CC(=O)N[C@@H](CCc2cc(F)c(C(F)(F)F)c(F)c2)C(=O)N2CC3(CC3)C[C@H]2C(=O)NC2(CC(C)(C)C2)C(=O)N1C [PP2961] | 13.9 | AA (a compound having 20 or more is denoted as AA) | A (a compound having 10 or more and less than 20 is denoted as A) | – | – | – | –
CCCN1C(=O)[C@@H]2CCN2C(=O)[C@H](C)N(C)C(=O)[C@H]([C@@H](C)CC)NC(=O)[C@H](CC(C)C)N(C)C(=O)C[C@@H](C(=O)N2CCOCC2)N(C)C(=O)[C@H](C2CCCC2)N(C)C(=O)C2(CCCC2)NC(=O)[C@@H]2C[C@@H](O)CN2C(=O)[C@H](CCc2ccc(C(F)(F)F)c(Cl)c2)NC(=O)CN(C)C(=O)[C@@H]1Cc1ccc(C(F)(F)F)cc1 [PP0239] ([NMeL]I[NMeA][Aze][NPrPhe(4-CF3)][Sar][hPhe(3-Cl-4-CF3)][Hyp][Ac5c][NMeGly(cPent)][NMeD]-Morpholide; lactam N-11) | 6.2 | C (A compound having a KD ratio of 0.1 or more and less than 3 is denoted as C) | B (a compound having 3 or more and less than 10 is denoted as B) | – | – | – | –
CC[C@H](C)[C@@H]1NC(=O)[C@H](CC(C)C)N(C)C(=O)C[C@@H](C(=O)N2CCOCC2)N(C)C(=O)[C@H](C2CCCC2)N(C)C(=O)C2(CCCC2)NC(=O)[C@@H]2CCCN2C(=O)[C@H](CCc2ccc(C(F)(F)F)c(Cl)c2)NC(=O)CN(C)C(=O)[C@H](Cc2ccc(C(F)(F)F)cc2)N(CC2CCC2)C(=O)[C@@H]2CCN2C(=O)[C@H](C)N(C)C1=O [PP0109] ([NMeL]I[NMeA][Aze][X39][Sar][hPhe(3-Cl-4-CF3)]P[Ac5c][NMeGly(cPent)][NMeD]-Morpholide; lactam N-11) | 21.7 | C (A compound having a KD ratio of 0.1 or more and less than 3 is denoted as C) | B (a compound having 3 or more and less than 10 is denoted as B) | – | – | – | –
CCCN1C(=O)[C@@H]2CCN2C(=O)CN(C)C(=O)[C@H]([C@@H](C)CC)NC(=O)[C@H](CC(C)C)N(C)C(=O)C[C@@H](C(=O)N2CCOCC2)N(C)C(=O)[C@H](CC(F)(F)F)N(C)C(=O)C2(CCCC2)NC(=O)[C@@H]2CCCN2C(=O)[C@H](CCc2cc(F)c(C(F)(F)F)c(F)c2)NC(=O)CN(C)C(=O)[C@@H]1Cc1ccc(C(F)(F)F)cc1 [PP0803] ([NMeL]I[Sar][Aze][NPrPhe(4-CF3)][Sar][hPhe(3,5-F2-4-CF3)]P[Ac5c][NMeAbu(4,4,4-F3)][NMeD]-Morpholide; lactam N-11) | 52.5 | C (A compound having a KD ratio of 0.1 or more and less than 3 is denoted as C) | B (a compound having 3 or more and less than 10 is denoted as B) | – | – | – | –
CCCOC[C@H]1C(=O)N[C@@H]([C@@H](C)CC)C(=O)N(C)CC(=O)N(C)[C@H]2C/C=C\CCN(C2=O)[C@@H](Cc2ccc(C(F)(F)F)cc2)C(=O)N(C)CC(=O)N[C@@H](CCc2ccc(C(F)(F)F)c(OC)c2)C(=O)N2C[C@H](OCC)C[C@H]2C(=O)NC2(CC(C)(C)C2)C(=O)N(C)[C@@H](C2CCCC2)C(=O)N(C)[C@H](C(=O)N(C)CC)CC(=O)N1C [PP1973] | 8.7 | – | – | A (a compound having 10 or more and less than 20 is denoted as A) | B (a compound having 3 or more and less than 10 is denoted as B) | – | –
CCC[C@H]1C(=O)N[C@@H]([C@@H](C)CC)C(=O)N(C)CC(=O)N(C)[C@H]2C/C=C\CCN(C2=O)[C@@H](Cc2ccc(C(F)(F)F)cc2)C(=O)N(C)CC(=O)N[C@@H](CCc2ccc(C(F)(F)F)c(Cl)c2)C(=O)N2CC3(CC3)C[C@H]2C(=O)NC2(CC(C)(C)C2)C(=O)N(C)[C@@H](CC(C)(C)C)C(=O)N(C)[C@H](C(=O)N(C)C)CC(=O)N1C [PP2979] | 5 | A (a compound having 10 or more and less than 20 is denoted as A) | B (a compound having 3 or more and less than 10 is denoted as B) | – | – | – | –
CCO[C@@H]1C[C@H]2C(=O)NC3(CC(C)(C)C3)C(=O)N(C)[C@@H](C(CC)CC)C(=O)N(C)[C@H](C(=O)N3CCCC3)CC(=O)N(C)[C@@H](COC)C(=O)N[C@@H]([C@@H](C)CC)C(=O)N(C)CC(=O)N(C)[C@H]3C/C=C\CCN(C3=O)[C@@H](Cc3ccc(C(F)(F)F)cc3)C(=O)N(C)CC(=O)N[C@@H](CCc3ccc(C(F)(F)F)c(OC)c3)C(=O)N2C1 [PP2159] | 19.5 | – | – | AA (a compound having 20 or more is denoted as AA) | A (a compound having 10 or more and less than 20 is denoted as A) | – | –
CCCN1C(=O)[C@@H]2CCN2C(=O)[C@H](C)N(C)C(=O)[C@H]([C@@H](C)CC)NC(=O)[C@H](CC(C)C)N(C)C(=O)C[C@@H](C(=O)N2CCOCC2)N(C)C(=O)[C@H](C2CCCC2)N(C)C(=O)C2(CCC2)NC(=O)[C@@H]2CC(F)(F)CN2C(=O)[C@H](CCc2ccc(C(F)(F)F)c(Cl)c2)NC(=O)CN(C)C(=O)[C@@H]1Cc1ccc(C(F)(F)F)cc1 [PP0208] ([NMeL]I[NMeA][Aze][NPrPhe(4-CF3)][Sar][hPhe(3-Cl-4-CF3)][Pro(4,4-F2)][Ac4c][NMeGly(cPent)][NMeD]-Morpholide; lactam N-11) | 4.6 | C (A compound having a KD ratio of 0.1 or more and less than 3 is denoted as C) | C (A compound having a KD ratio of 0.1 or more and less than 3 is denoted as C) | – | – | – | –
CC[C@H](C)[C@@H]1NC(=O)[C@H](CC(C)C)N(C)C(=O)C[C@@H](C(=O)N(C)C)N(C)C(=O)[C@H](C2CCCC2)N(C)C(=O)C2(CC(C)(C)C2)NC(=O)[C@@H]2C[C@H](C)CN2C(=O)[C@H](CCc2cc(F)c(C(F)(F)F)c(F)c2)NC(=O)CN(C)C(=O)[C@H](Cc2ccc(C(F)(F)F)cc2)N2CC/C=C\C[C@@H](C2=O)N(C)C(=O)CN(C)C1=O [PP1662] | 6.4 | – | – | – | – | A (a compound having 10 or more and less than 20 is denoted as A) | B (a compound having 3 or more and less than 10 is denoted as B)
CCC[C@H]1C(=O)N[C@@H]([C@@H](C)CC)C(=O)N(C)CC(=O)N(C)[C@H]2C/C=C\CCN(C2=O)[C@@H](Cc2ccc(C(F)(F)F)cc2)C(=O)N(C)CC(=O)N[C@@H](CCc2cc(F)c(C(F)(F)F)c(F)c2)C(=O)N2C[C@H](OCC)C[C@H]2C(=O)NC2(CCC2)C(=O)N(C)[C@@H](C2CCCC2)C(=O)N(C)[C@H](C(=O)N(C)C)CC(=O)N1C [PP1110] | 11.2 | A (a compound having 10 or more and less than 20 is denoted as A) | B (a compound having 3 or more and less than 10 is denoted as B) | – | – | – | –
